Each compound was assayed against T1, human KDR enzyme (Homo sapiens, UniProt P35968) (assay: Phosphorylation of the substrate PLCγ by the enzyme KDR in vitro (flashplate technique)). Conditions: Activity, Table VII, degrees of activity by IC50 range.
T1 construct: The cytoplasmic domain of human KDR enzyme is cloned in the form of a GST fusion; GST; made in house; host or cells: SF21 insect cells (baculovirus, pFastBac)
Type: biochemical
Summary of the method: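 GST-fused human KDR cytoplasmic domain (Sf21 baculovirus, ~60% pure; 100 ng/well) phosphorylating 2 μg GST-PLCγ SH2-SH3 fragment in MOPS pH 7.2 with MgCl2/MnCl2, 1 h at 37° C. Started with γ33P-ATP plus cold ATP (2 μM in start solution); flashplate radioactivity. % inhibition vs no-compound control; IC50 from dose-response curves.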

T1 sequence (P35968 786-1356 limits assumed): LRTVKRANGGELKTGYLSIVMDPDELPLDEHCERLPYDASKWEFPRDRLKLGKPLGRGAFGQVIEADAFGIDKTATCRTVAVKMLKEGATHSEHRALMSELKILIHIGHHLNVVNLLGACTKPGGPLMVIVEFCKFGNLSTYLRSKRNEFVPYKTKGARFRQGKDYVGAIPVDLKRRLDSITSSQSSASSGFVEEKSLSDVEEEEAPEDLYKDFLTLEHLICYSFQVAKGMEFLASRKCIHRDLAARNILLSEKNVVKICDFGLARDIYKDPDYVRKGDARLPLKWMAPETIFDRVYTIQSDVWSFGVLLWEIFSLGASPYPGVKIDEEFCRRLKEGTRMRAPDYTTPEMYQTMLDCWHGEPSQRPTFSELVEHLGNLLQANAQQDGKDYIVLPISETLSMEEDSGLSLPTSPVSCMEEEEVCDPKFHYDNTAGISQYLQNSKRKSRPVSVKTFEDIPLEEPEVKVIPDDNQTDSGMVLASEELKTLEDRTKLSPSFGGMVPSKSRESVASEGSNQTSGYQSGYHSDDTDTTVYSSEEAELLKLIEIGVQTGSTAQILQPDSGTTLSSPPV

O=C(Cc1ccccc1)Oc1cc(-c2nc3ccccc3[nH]2)[nH]n1 [Example 219, Phenyl-acetic acid 5-(1H-benzoimidazol-2-yl)-1H-pyrazol-3-yl ester] was tested, and the IC50 was over 3 µM.

Same assay, conditions: Table VII, degrees of activity by IC50 range; read-out: Activity

O=C1CCc2cc(C(=O)COc3cc(-c4nc5ccccc5[nH]4)[nH]n3)ccc2N1 [Example 209, 6-{2-[5-(1H-Benzoimi-dazol-2-yl)-1H-pyrazol-3-yloxy]-acetyl}-3,4-dihydro-1H-quinolin-2-one] and NS(=O)(=O)c1cc(C(=O)COc2cc(-c3nc4ccccc4[nH]3)[nH]n2)ccc1Cl [Example 211, 5-{2-[5-(1H-Benzoimida-zol-2-yl)-1H-pyrazol-3-yloxy]-acetyl}-2-chloro-benzenesulfonamide] cannot be ordered by IC50: over 3 µM for the first, over 3 µM for the second.

O=C(COc1cc(-c2nc3ccccc3[nH]2)[nH]n1)c1ccc(OC(F)(F)F)cc1 [Example 210, 2-[5-(1H-Benzoimidazol-2-yl)-1H-pyrazol-3-yloxy]-1-(4-trifluoromethoxy-phenyl)-ethanone] and COc1ccc(C(=O)COc2cc(-c3nc4ccccc4[nH]3)[nH]n2)cc1 [Example 212, 2-[5-(1H-Benzoimidazol-2-yl)-1H-pyrazol-3-yloxy]-1-(4-methoxy-phenyl)-ethanone] cannot be ordered by IC50: over 3 µM for the first, over 3 µM for the second.

O=C(COc1cc(-c2nc3ccccc3[nH]2)[nH]n1)C1CC1 [Example 213, 2-[5-(1H-Benzoimidazol-2-yl)-1H-pyrazol-3-yloxy]-1-cyclopropyl-ethanone] and O=C(Oc1cc(-c2nc3ccccc3[nH]2)[nH]n1)C1CC1 [Example 221, Cyclopropanecarboxylic acid 5-(1H-benzoimidazol-2-yl)-1H-pyrazol-3-yl ester] cannot be ordered by IC50: over 3 µM for the first, over 3 µM for the second.

O=C(Oc1cc(-c2nc3ccccc3[nH]2)[nH]n1)c1ccncc1 [Example 214, Isonicotinic acid 5-(1H-benzoimidazol-2-yl)-1H-pyrazol-3-yl ester] and O=C(Oc1cc(-c2nc3ccccc3[nH]2)[nH]n1)c1ccccc1 [Example 217, Benzoic acid 5-(1H-benzoimidazol-2-yl)-1H-pyrazol-3-yl ester] fall in the same range of IC50: 0.3 to 3 µM for the first, 0.3 to 3 µM for the second.

CC(C)(C)C(=O)Oc1cc(-c2nc3ccccc3[nH]2)[nH]n1 [Example 215, 2,2-Dimethyl-propionic acid 5-(1H-benzoimidazole-2-yl)-1H-pyrazol-3-yl ester] and O=C(Oc1cc(-c2nc3ccccc3[nH]2)[nH]n1)C1CCCC1 [Example 223, Cyclopentanecarboxylic acid 5-(1H-benzoimidazol-2-yl)-1H-pyrazol-3-yl ester] cannot be ordered by IC50: over 3 µM for the first, over 3 µM for the second.

First: O=C(COCc1ccccc1)Oc1cc(-c2nc3ccccc3[nH]2)[nH]n1 [Example 216, Benzyloxy-acetic acid 5-(1H-benzoimidazol-2-yl)-1H-pyrazol-3-yl ester]
Second: O=C(CCc1ccccc1)Oc1cc(-c2nc3ccccc3[nH]2)[nH]n1 [Example 224, 3-Phenyl-propionic acid 5-(1H-benzoimidazol-2-yl)-1H-pyrazol-3-yl ester]
The IC50 of the first is higher: over 3 µM for the first, 0.3 to 3 µM for the second.

COc1ccc(C(=O)Oc2cc(-c3nc4ccccc4[nH]3)[nH]n2)cc1 [Example 218, 4-Methoxy-benzoic acid 5-(1H-benzoimidazol-2-yl)-1H-pyrazol-3-yl ester] and O=C(Oc1cc(-c2nc3ccccc3[nH]2)[nH]n1)c1ccc(C(F)(F)F)cc1 [Example 227, 4-Trifluoromethyl-benzoic acid 5-(1H-benzoimidazol-2-yl)-1H-pyrazol-3-yl ester] cannot be ordered by IC50: over 3 µM for the first, over 3 µM for the second.

O=C(Oc1cc(-c2nc3ccccc3[nH]2)[nH]n1)c1c(F)c(F)c(F)c(F)c1F [Example 220, 2,3,4,5,6-Pentafluoro-benzoic acid 5-(1H-benzoimidazol-2-yl)-1H-pyrazol-3-yl ester] and O=C(Oc1cc(-c2nc3ccccc3[nH]2)[nH]n1)c1cccs1 [Example 228, Thiophene-2-carboxylic acid 5-(1H-benzoimidazol-2-yl)-1H-pyrazol-3-yl ester] cannot be ordered by IC50: over 3 µM for the first, over 3 µM for the second.

O=C(Oc1cc(-c2nc3ccccc3[nH]2)[nH]n1)C(F)(F)C(F)(F)C(F)(F)F [Example 222, 2,2,3,3,4,4,4-Heptafluoro-butyric acid 5-(1H-benzoimidazol-2-yl)-1H-pyrazol-3-yl ester] and O=C(Oc1cc(-c2nc3ccccc3[nH]2)[nH]n1)c1cc(C(F)(F)F)cc(C(F)(F)F)c1 [Example 226, 3,5-Bis-trifluoromethyl-benzoic acid 5-(1H-benzoimidazol-2-yl)-1H-pyrazol-3-yl ester] cannot be ordered by IC50: over 3 µM for the first, over 3 µM for the second.

O=C(Oc1cc(-c2nc3ccccc3[nH]2)[nH]n1)c1ccc(-c2ccccc2)cc1 [Example 225, Biphenyl-4-carboxylic acid 5-(1H-benzoimidazol-2-yl)-1H-pyrazol-3-yl ester] gave an IC50 of over 3 µM.

— patent US20050009894A1 (Aventis Pharma S.A., priority 2001, published 2005)
